EP0745595A1, “3-(3-Aryloxyphenyl)-1-(substituted methyl)-s-triazine-2,4,6-oxo or thiotrione herbicidal agents” (American Cyanamid Company, priority 1995, dated 1996)

Key:
Assay type in all cases: in vivo
[1] = test system: ABUTILON THEOPHRASTI, MEDIC.; test: Postemergence herbicidal evaluation, ABUTH (Velvetleaf); settings: for ABUTH, herbicide rating (0-9): rated four to five weeks after treatment, averaged
Outline: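 This postemergence herbicide test used two-week-old velvetleaf seedlings grown in jiffy flats. Each compound was sprayed at 40 psi as a dispersion in 50/50 acetone/water with 0.5% TWEEN®20 surfactant. Plants then received routine greenhouse care. After four to five weeks, injury was scored visually on a 0-9 scale against a control, and replicate tests were averaged.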

[2] = test system: AMBROSIA ARTEMISIIFOLIA, L.; test: Postemergence herbicidal evaluation, AMBEL (Ragweed, Common); settings: for AMBEL, herbicide rating (0-9): rated four to five weeks after treatment, averaged
Outline: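 Postemergence herbicidal activity on AMBEL (common ragweed) was assessed on two-week-old seedlings grown in jiffy flats. Treatment solutions of 50/50 acetone/water with 0.5% TWEEN®20 surfactant were sprayed at 40 psi. After four to five weeks in the greenhouse, plants were scored 0-9 against a control for stand, vigor, malformation, size, chlorosis and overall appearance, with multiple tests averaged.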

CHENOPODIUM ALBUM, L. [3] = test: Postemergence herbicidal evaluation, CHEAL (Lambsquarters, Common);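 also: higher means more injury with 8 approaching complete kill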
Outline: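 Postemergence herbicidal activity on Chenopodium album was tested by spraying two-week-old seedlings grown in jiffy flats with compound in acetone/water (50/50) plus 0.5% TWEEN®20, using a 40 psi nozzle. Four to five weeks after treatment, stand, vigor, malformation, size, chlorosis and overall appearance were scored 0-9 relative to controls, with repeat tests averaged.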

IPOMOEA SPP. = test: Postemergence herbicidal evaluation, IPOSS (Morningglory spp.); settings: for IPOSS, herbicide rating (0-9): rated four to five weeks after treatment, averaged
Outline: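 In this greenhouse postemergence herbicide test on Ipomoea spp. (morningglory), compounds in 50/50 acetone/water with 0.5% TWEEN®20 were sprayed at 40 psi onto seedlings about two weeks old grown in jiffy flats. After four to five weeks, injury was scored on a 0-9 scale covering stand, vigor, malformation, size, chlorosis and overall appearance versus control, with repeat tests averaged.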

GALIUM APARINE = test: Postemergence herbicidal evaluation, GALAP (Galium); design: key to GALAP rating / Herbicidal effect rating, GALAP / GALAP: 0-9 visual rating scale vs untreated control; settings: for GALAP, herbicide rating (0-9): rated four to five weeks after treatment, averaged
Outline: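 In this postemergence greenhouse test, two-week-old Galium aparine seedlings grown in jiffy flats received a 40 psi spray of compound in acetone/water (50/50) with 0.5% TWEEN®20 surfactant. After four to five weeks, stand, vigor, malformation, size, chlorosis and overall appearance were compared with untreated controls on a 0-9 scale, averaging multiple tests.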

[4] = test system: ECHINOCHLOA CRUS-GALLI, (L) BEAU; test: Postemergence herbicidal evaluation, ECHCG (Barnyardgrass); design: key to ECHCG rating / Herbicidal effect rating, ECHCG / ECHCG: 0-9 visual rating scale vs untreated control
Outline: (§1)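 Each value is a 0–9 visual rating of plant appearance compared with control, recorded 4–5 weeks after a 0.125–0.500 kg/ha spray, with multiple tests averaged.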

[5] = test system: SETARIA VIRIDIS, (L) BEAU; test: Postemergence herbicidal evaluation, SETVI (Foxtail, Green); design: key to SETVI rating / Herbicidal effect rating, SETVI / SETVI: 0-9 visual rating scale vs untreated control
Outline: as §1

[6] = test system: TRITICUM AESTIVUM, CV. APOLLO; test: Postemergence herbicidal evaluation, TRZAWO (Wheat, Winter, CV. APOLLO); settings: for TRZAWO, herbicide rating (0-9): crop, rated four to five weeks after treatment, averaged
Outline: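 This greenhouse postemergence test applied compounds to roughly two-week-old wheat seedlings grown in jiffy flats. The spray solution was 50/50 acetone/water with 0.5% TWEEN®20, a polyoxyethylene sorbitan monolaurate, sprayed from a nozzle run at 40 psi. After four to five weeks of standard greenhouse care, injury was scored from 0 to 9 by comparing stand, vigor, malformation, size, chlorosis and overall appearance with a control. Multiple tests were averaged.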

ZEA MAYS L. = test: Postemergence herbicidal evaluation, ZEAMX (Corn, Field);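 also: higher means more injury with 8 approaching complete kill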
Outline: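 This greenhouse postemergence test treated corn plants about two weeks old. Compounds in a 50/50 acetone/water mixture with 0.5% TWEEN®20 were applied through a spray nozzle at 40 psi. After four to five weeks, injury was scored 0-9 against an untreated control, judging stand, vigor, malformation, size, chlorosis and overall appearance. Repeated tests were averaged.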

CHENOPODIUM ALBUM, L. [7] = test: Preemergence herbicidal evaluation, CHEAL (Lambsquarters, Common); settings: for CHEAL herbicidal rating: rated four to five weeks after treatment
Outline: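 Preemergence, greenhouse: seed + potting soil sown on ~1 inch soil in cups; aqueous acetone spray, ~0.125–0.50 kg/ha equivalent; rated 0-9 vs control at 4–5 wk.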

[8] = test system: ORYZA SATIVA, L. TEBONNET; test: Rice tolerance to post-transplant applications under flooded paddy conditions, ORYSAT (Rice, Tebonnet); settings: for Herbicidal effect rating, ORYSAT: post-transplant rice, 3-4 weeks after treatment; for ORYSAT: post-transplanted rice
Outline: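 Visual 0-9 rating against untreated control (stand, vigor, malformation, size, chlorosis, overall appearance), taken 3-4 weeks after treatment. Flooded silt loam, water at 1.5-3 cm; two 10-day-old seedlings per pot; compound applied to flooded soil surface 3 days post-transplant at ~0.5-0.063 kg/ha.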

COC(=O)Cn1c(=O)n(C)c(=O)n(-c2cc(Oc3c(F)cc(C(F)(F)F)cc3Cl)ccc2[N+](=O)[O-])c1=O [Compound 16, Methyl 3-{5-[(2-chloro-α,α,α,6-tetrafluoro-p-tolyl)oxy]-2-nitrophenyl}tetrahydro-5-methyl-2,4,6-trioxo-s-triazine-1(2H)-acetate]
ABUTH ([1]; Rate 0.008 kg/ha): 5.5
ABUTH ([1]; Rate 0.016 kg/ha): 8.3
ABUTH ([1]; Rate 0.031 kg/ha): 8.0
ABUTH ([1]; Rate 0.063 kg/ha): 8.3
ABUTH ([1]; Rate 0.125 kg/ha): 9.0
ABUTH, herbicide rating (0-9) ([1]; Rate 0.125 kg/ha): 9.0
ABUTH, herbicide rating (0-9) ([1]; Rate 0.250 kg/ha): 9.0
ABUTH, herbicide rating (0-9) ([1]; Rate 0.500 kg/ha): 9.0
AMBEL ([2]; Rate 0.008 kg/ha): 7.0
AMBEL ([2]; Rate 0.016 kg/ha): 9.0
AMBEL ([2]; Rate 0.031 kg/ha): 9.0
AMBEL ([2]; Rate 0.063 kg/ha): 9.0
AMBEL ([2]; Rate 0.125 kg/ha): 9.0
AMBEL, herbicide rating (0-9) ([2]; Rate 0.125 kg/ha): 9.0
AMBEL, herbicide rating (0-9) ([2]; Rate 0.250 kg/ha): 9.0
AMBEL, herbicide rating (0-9) ([2]; Rate 0.500 kg/ha): 9.0
CHEAL (CHENOPODIUM ALBUM, L. [3]; Rate 0.008 kg/ha): 0.0
CHEAL (CHENOPODIUM ALBUM, L. [3]; Rate 0.016 kg/ha): 1.5
CHEAL (CHENOPODIUM ALBUM, L. [3]; Rate 0.031 kg/ha): 3.0
CHEAL (CHENOPODIUM ALBUM, L. [3]; Rate 0.063 kg/ha): 3.7
CHEAL (CHENOPODIUM ALBUM, L. [3]; Rate 0.125 kg/ha): 6.5
IPOSS (IPOMOEA SPP.; Rate 0.008 kg/ha): 6.0
IPOSS (IPOMOEA SPP.; Rate 0.016 kg/ha): 7.0
IPOSS (IPOMOEA SPP.; Rate 0.031 kg/ha): 7.0
IPOSS (IPOMOEA SPP.; Rate 0.063 kg/ha): 8.3
IPOSS (IPOMOEA SPP.; Rate 0.125 kg/ha): 9.0
IPOSS, herbicide rating (0-9) (IPOMOEA SPP.; Rate 0.125 kg/ha): 9.0
IPOSS, herbicide rating (0-9) (IPOMOEA SPP.; Rate 0.250 kg/ha): 9.0
IPOSS, herbicide rating (0-9) (IPOMOEA SPP.; Rate 0.500 kg/ha): 9.0
GALAP (GALIUM APARINE; Rate 0.008 kg/ha): 4.5
GALAP (GALIUM APARINE; Rate 0.016 kg/ha): 6.0
GALAP (GALIUM APARINE; Rate 0.031 kg/ha): 8.0
GALAP (GALIUM APARINE; Rate 0.063 kg/ha): 9.0
GALAP (GALIUM APARINE; Rate 0.125 kg/ha): 9.0
GALAP, herbicide rating (0-9) (GALIUM APARINE; Rate 0.125 kg/ha): 9.0
GALAP, herbicide rating (0-9) (GALIUM APARINE; Rate 0.250 kg/ha): 9.0
GALAP, herbicide rating (0-9) (GALIUM APARINE; Rate 0.500 kg/ha): 9.0
ECHCG ([4]; Rate 0.008 kg/ha): 0.0
ECHCG ([4]; Rate 0.016 kg/ha): 0.5
ECHCG ([4]; Rate 0.031 kg/ha): 0.7
ECHCG ([4]; Rate 0.063 kg/ha): 1.7
ECHCG ([4]; Rate 0.125 kg/ha): 3.7
SETVI ([5]; Rate 0.008 kg/ha): 0.0
SETVI ([5]; Rate 0.016 kg/ha): 0.0
SETVI ([5]; Rate 0.031 kg/ha): 0.0
SETVI ([5]; Rate 0.063 kg/ha): 0.8
SETVI ([5]; Rate 0.125 kg/ha): 1.3
TRZAWO ([6]; Rate 0.008 kg/ha): 4.5
TRZAWO ([6]; Rate 0.016 kg/ha): 4.7
TRZAWO ([6]; Rate 0.031 kg/ha): 6.4
TRZAWO ([6]; Rate 0.063 kg/ha): 7.4
TRZAWO ([6]; Rate 0.125 kg/ha): 8.4
TRZAWO, herbicide rating (0-9) ([6]; Rate 0.125 kg/ha): 8.4
TRZAWO, herbicide rating (0-9) ([6]; Rate 0.250 kg/ha): 8.4
TRZAWO, herbicide rating (0-9) ([6]; Rate 0.500 kg/ha): 8.4
ZEAMX (ZEA MAYS L.; Rate 0.008 kg/ha): 2.0
ZEAMX (ZEA MAYS L.; Rate 0.016 kg/ha): 2.4
ZEAMX (ZEA MAYS L.; Rate 0.031 kg/ha): 3.0
ZEAMX (ZEA MAYS L.; Rate 0.063 kg/ha): 3.4
ZEAMX (ZEA MAYS L.; Rate 0.125 kg/ha): 4.2
CHEAL (CHENOPODIUM ALBUM, L. [7]; Rate 0.031 kg/ha): 9.0
CHEAL (CHENOPODIUM ALBUM, L. [7]; Rate 0.063 kg/ha): 9.0
CHEAL (CHENOPODIUM ALBUM, L. [7]; Rate 0.125 kg/ha): 9.0
CHEAL herbicidal rating (CHENOPODIUM ALBUM, L. [7]; Rate 0.125 kg/ha): 9.0
CHEAL (CHENOPODIUM ALBUM, L. [7]; Rate 0.250 kg/ha): 9.0
CHEAL herbicidal rating (CHENOPODIUM ALBUM, L. [7]; Rate 0.250 kg/ha): 9.0
CHEAL herbicidal rating (CHENOPODIUM ALBUM, L. [7]; Rate 0.500 kg/ha): 9.0
Herbicidal effect rating, ORYSAT ([8]; 0.063 kg/ha): 3.5
Herbicidal effect rating, ORYSAT ([8]; 0.125 kg/ha): 5.0
Herbicidal effect rating, ORYSAT ([8]; 0.250 kg/ha): 7.0
Herbicidal effect rating, ORYSAT ([8]; 0.500 kg/ha): 6.0
ORYSAT ([8]; Rate 0.031 kg/ha): 3.0
ORYSAT ([8]; Rate 0.063 kg/ha): 3.5
ORYSAT ([8]; Rate 0.125 kg/ha): 5.0
ORYSAT ([8]; Rate 0.250 kg/ha): 7.0
